This data set in a line: Solid-liquid equilibrium temperature.

Each structure is given as a SMILES string. ± gives the expanded uncertainty stated by the source.

On to `CCCCCCCCCCCCCC` [tetradecane], for which the Solid-liquid equilibrium temperature (100 kPa, Crystal) was found to be 279.2 ± 0.9 K; the Solid-liquid equilibrium temperature (20000 kPa, Crystal) was found to be 284.2 ± 0.9 K; the Solid-liquid equilibrium temperature (40000 kPa, Crystal) is 289.1 ± 0.9 K; the Solid-liquid equilibrium temperature (60000 kPa, Crystal) stood at 293.8 ± 0.9 K; the Solid-liquid equilibrium temperature (80000 kPa, Crystal) amounted to 297.9 ± 0.9 K; the Solid-liquid equilibrium temperature (100000 kPa, Crystal) worked out at 301.7 ± 0.9 K.

`CCCCCCCCCCCCCCC` [pentadecane]: the Solid-liquid equilibrium temperature came to 283.2 ± 0.9 K (100 kPa, Crystal); 287.8 ± 0.9 K (20000 kPa, Crystal); 291.9 ± 0.9 K (40000 kPa, Crystal); 296.2 ± 0.9 K (60000 kPa, Crystal); 300.1 ± 0.9 K (80000 kPa, Crystal); 303.9 ± 0.9 K (100000 kPa, Crystal).

Take `CCCCCCCCCCCCCCCC` [hexadecane]: the Solid-liquid equilibrium temperature reads like this: (100 kPa, Crystal 1) 291.5 ± 0.9 K; (20000 kPa, Crystal 1) 296 ± 0.9 K; (40000 kPa, Crystal 1) 300.4 ± 0.9 K; (60000 kPa, Crystal 1) 304.8 ± 0.9 K; (80000 kPa, Crystal 1) 309.7 ± 0.9 K; (100000 kPa, Crystal 1) 313.5 ± 0.9 K.

Source of the values: the NIST ThermoML archive (doi:10.1016/j.fluid.2005.06.028).
